Reference: the NIST ThermoML archive (doi:10.1016/j.jct.2012.04.018)
± gives the expanded uncertainty stated by the source.

Assay: refractive index (other wavelength) (dimensionless)
Settings: 100 kPa, Liquid, Wavelength=632.8 nm, He-Ne laser

refractive index (280.98 K)	refractive index (281.89 K)	refractive index (283.78 K)	refractive index (286.19 K)	refractive index (288.04 K)	refractive index (290.13 K)	refractive index (280.08 K)	refractive index (281.97 K)	refractive index (283.66 K)	refractive index (285.71 K)	refractive index (287.84 K)	refractive index (290.47 K)	Structure (SMILES)
1.5309 ± 0.0003	1.5304 ± 0.0003	1.5296 ± 0.0003	1.5284 ± 0.0003	1.5275 ± 0.0003	1.5266 ± 0.0003	–	–	–	–	–	–	N#Cc1ccccc1 [benzonitrile]
–	–	–	–	–	–	1.4216 ± 0.0003	1.4209 ± 0.0003	1.4201 ± 0.0003	1.4192 ± 0.0003	1.4182 ± 0.0003	1.4171 ± 0.0003	CCCCCCCCCCC [undecane]
